These results are taken from patent US9260382B2, “Methods of reducing virulence in bacteria” (priority 2010, dated 2016).

The test system of one assay is hrpW mRNA. In words: Real-time PCR of hrpW in DC3000. The format is cell-based, Pseudomonas syringae pv. tomato DC3000. To be noted: HIM supplemented with 250 μM, 9 h. Here is the method:
DC3000 was cultured in KB medium overnight at 28° C. and subcultured in HIM medium supplemented with DMSO or with 250 μM TCA for 9 h. Total bacterial RNA was isolated using RNeasy Mini Kit (QIAGEN, Valencia, Calif.) and treated with Turbo DNA-free DNase kit (Ambion, Austin, Tex.). cDNA was synthesized using iScript cDNA Synthesis Kit (Bio-Rad, Hercules, Calif.) from 0.8 μg of total RNA. The Real Master Mix SYBR ROX (5 PRIME, Gaithersburg, Md.) was used for real-time PCR reactions to quantify the cDNA level of target genes in different samples. Data were collected by the Opticon 2 system (Bio-Rad) and analyzed using Relative Expression Software Tool as described by Pfaffl and associates (Pfaffl et al. 2002). Two housekeeping genes, gyrA (PSPTO1745) and gap1 (PSPTO1287) were used as endogenous controls for data analysis. The PCR efficiencies of the primers are: gyrA, 1.93; gap1, 2.08; and hrpW, 1.93.

For assay [1], the system named is Pseudomonas syringae pv. tomato DC3000. In words: Virulence assay in tomato plants (bacterial speck). It is filed as in vivo. The settings on record: five days post-inoculation; for bacterial speck lesions on tomato plants, in words: DC3000 with 250 μM. On the procedure: Virulence assays were performed in 4-5 week old tomato plants. Bacterial cell suspensions were adjusted to 6×10^5 cells/ml in dH2O with 0.02% Silwet L-77 (Lehle Seeds, Round Rock, Tex.). Lycopersicon esculentum cv. Moneymaker plants were dip-inoculated into negative control solution (dH2O with 0.02% Silwet L-77 and DMSO), positive control solution (DC3000 in dH2O with 0.02% Silwet L-77 and DMSO), or with a chemical treatment solution (DC3000 in dH2O with 0.02% Silwet L-77 and 250 μM TCA). Leaves were air-dried and plants were covered with a plastic dome and returned to the growth chamber. Plants were scored for disease symptoms using a modified scoring system (Kozik and Nowakowska 2010) five days post-inoculation. Lesions of bacterial speck on tomato were counted and the plants were scored using the following DSI scale: 0=no lesions per plant, 1=1-10 lesions, 2=11-20 lesions, 3=21-40 lesions, 4=>40 lesions.
The effects of TCA on virulence in tomato plants were examined. Lycopersicon esculentum cv. Moneymaker plants were dip-inoculated with a negative control treatment (dH2O with 0.02% Silwet L-77 and DMSO), a positive control treatment (DC3000 in dH2O with 0.02% Silwet L-77 and DMSO), or with a chemical treatment (DC3000 in dH2O with 0.02% Silwet L-77 and 250 μM TCA) as described in the methods. The lesions of bacterial speck on leaves per plant were counted and plants were classified with a disease severity index (DSI) as described in the methods. […] Plants treated with DC3000 were all scored with a DSI of four (FIG. 36B).

For the next assay, the system named is gacA mRNA. In words: qRT-PCR relative mRNA level of gacA. The format is cell-based, Dickeya dadantii 3937. To be noted: 0.1 mM in MM. Here is the method:
(§1) Bacterial strains were grown in MM. Total RNA from the bacterial cells was isolated by using the TRI reagent method (Sigma, Mo.) and treated with Turbo DNA-free DNase kits (Ambion, Tex.) as described (Peng et al., 2006). An iScript cDNA Synthesis Kit (Bio-Rad, CA) was used to synthesize cDNA from 0.5 μg of treated total RNA. The Real Master Mix (Eppendorf, Westbury, N.Y.) was used for qRT-PCR reaction to quantify the cDNA level of target genes in different samples. The rplU was used as the endogenous control for data analysis. qRT-PCR data were analyzed using Relative Expression Software Tool as described (Pfaffl, M. W., Horgan, G. W., and Dempfle, L. (2002) Relative expression software tool (REST) for group-wise comparison and statistical analysis of relative expression results in real-time PCR. Nucleic Acids Res 30:e36.).
(In general: In qPCR the cycle at which signal appears reflects the starting amount.)

Another assay concerns hrpN mRNA. In words: qRT-PCR relative mRNA level of hrpN. It is filed as cell-based, Dickeya dadantii 3937. To be noted: 0.1 mM in MM. Here is the method:
as §1

Another assay deals with HrpN protein. In words: HrpN protein expression (FIG. 15). To be noted: MM supplemented with 0.1 mM (FIG. 15). The format is cell-based, Dickeya dadantii 3937. An excerpt:
To further elucidate whether T3SS gene expression is mainly regulated through the HrpX/Y-HrpS-HrpL regulatory pathway, the expression of hrpA and hrpN in wild-type Ech3937 and hrpX (WPP67), hrpY (WPP92), hrpS (WPP90), and hrpL (WPP96) mutants in MM were examined. […] Similar expression of hrpA and hrpN was observed among WPP67, WPP92, WPP90 and WPP96 carrying phrpA and phrpN grown in MM and MM supplemented with PCA. […] Since PCA represses the expression of several T3SS genes such as hrpN, the effect of PCA on protein production of HrpN was further examined.

Another assay has as its system P. aeruginosa. The assay can be described thus: P. aeruginosa bacterial growth with compound. It is filed as cell-based, P. aeruginosa PA01. On the procedure: To identify T3SS inhibitors of PA01, a promoter-probe vector pPROBE-AT containing the promoterless green fluorescent protein (gfp) gene was used to construct an exoS promoter-gfp plasmid reporter, pATexoS. PA01 containing pATexoS was cultured in T3SS-inducing medium containing dimethyl sulfoxide (DMSO; solvent of chemical compounds), or supplemented with 250 μM of each compound, and promoter activity was assessed at 6 h by measuring GFP intensity using flow cytometry. 101 compounds (58 synthesized and 43 commercially available) were screened. Compounds 027, 032, 101, and 149 repressed exoS expression at the final concentration of 250 μM by at least one standard deviation below the sample average (Z score≦−1) (FIG. 37 A-E). Z score (or standard score) indicates how many standard deviations an observation or datum is above or below the mean [z=(x−μ)/σ, where x is a raw score to be standardized, μ is the mean of the population, and σ is the standard deviation of the population].
To determine the effective concentration of compounds, the dose-dependent effect of potential inhibitors on exoS expression and bacterial growth were tested. P. aeruginosa cells carrying pATexoS were pre-cultured in LB supplemented with 200 mM NaCl and transferred to fresh LB with 200 mM NaCl, 10 mM NTA, and various concentrations of compounds (20, 50, 100, and 250 μM) or DMSO for 6 h. […] At 50 μM dosage, both 027 and 101 inhibited exoS expression at similar levels, and this inhibitory effect increased as compound concentration increased (FIG. 38A and Table 17). […] These inhibitions/inductions of exoS expression are caused by the shifting bacterial population between low-state expression cells and high-state expression cells (FIG. 40).

Take `O=C(O)/C=C/c1ccccc1` [Compound 001, trans-cinnamic acid]: the “hrpW mRNA relative expression ratio vs HIM alone” value with hrpW mRNA was 0.07. For the same compound, the “disease severity index (DSI)” value in assay [1] (tomato Lycopersicon esculentum cv. Moneymaker dip-inoculated with DC3000 and 250 μM) is listed as “zero”. In addition, the entries for the “bacterial speck lesions on tomato plants, in words” value in assay [1] and in assay [1] (listed as TCA) were “No lesions of bacterial speck were observed” and “no bacterial speck lesions were observed”, respectively.

Regarding `O=C(O)/C=C/c1ccccc1O` [Compound 006, Ortho-coumaric acid], the “gacA mRNA compared with MM alone, in words” value with gacA mRNA is “No significant difference”.

`O=C(O)/C=C/c1ccc(O)cc1` [Compound 004, para-coumaric acid]: the “hrpN mRNA compared with MM alone, in words” value in the assay on hrpN mRNA was “significantly lower amount of mRNA”. Besides, the “HrpN protein amount compared with MM alone, in words” value with HrpN protein is given as “a lower amount of HrpN”.

`O=C(/C=C/c1ccc(O)cc1)NO` [Compound 103, trans-4-Hydroxycinnamohydroxamic acid]: the “effect on bacterial growth, in words” value with P. aeruginosa (P. aeruginosa, 250 μM) was “some inhibition on bacterial growth”. In addition, the “dose-dependent effect on P. aeruginosa growth, in words” value in the assay on P. aeruginosa (various concentrations (up to 250 μM for 101, up to 500 μM for 027), FIG. 39) is “inverse relationship was observed between the compound concentration and bacterial growth”.
